This note sets out measurements from paper PMC6062979 (BMC Complementary and Alternative Medicine, 2018).

For one data set, the system named is T. cruzi Tryp (TDC). Nature of the data set: Anti-parasitic activity on T. cruzi trypomastigotes derived from cells (Trypan Blue differential count). The note with it: for IC50: Trypanosoma cruzi, read-out: Tryp IC50 SD, trypomastigotes, 24 h; for IC50 / Tryp IC50 SD: 24 h; for Tryp SI (CC50/IC50): Vero CC50 / trypomastigote IC50; for Tryp IC50 SD: trypomastigotes. The procedure:
(§1) Vero lineage derived from African Green Monkey Kidney (Vero, ATCC CCL-81) was used for selectivity index determination and for Tryp and Amas production. These cells were grown on DMEM (Life Technology, CA, USA) media, pH: 7.4; supplemented with 10% of inactivated Fetal Bovine Serum (FBSi), 1000 U/mL of penicillin, and 100 μg/mL of streptomycin; and incubated at 37 °C with 90% humidity and a 5% CO2 atmosphere. Epi of T. cruzi I (TcI) SYLVIO-X10 strain, were donated by Dr. Marcos López-Casillas, from Fundación Cardiovascular de Colombia and grown in LIT medium (Merck) supplemented with 10% FBSi, and incubated at 28 °C. The Trypomastigotes Derived from Cells (TDC) were obtained by infection of a confluent monolayer of Vero cells with 12 day-old stationary growth phase Epi and incubated under the same conditions described above for Vero cells.
(§2) T. cruzi Epi (5 × 10^5 Epi/mL) and TDC (5 × 10^5 cells/mL) in the exponential growth phase were plated in a 96-well standard microplate in LIT medium (at 28 °C) and in D-MEM medium (at 37 °C in a 5% CO2 atmosphere), respectively. Both cultures were supplemented with 10% FBSi. For the trypanocidal assays, the EOs or their terpenes were added at varying concentrations (3.7 to 100 μg/mL) and incubated at the same culture conditions for 72 (Epi) or 24 h (Tryp). The growth inhibition was estimated by light microscopy through a differential count using the Trypan Blue (Gibco) dye exclusion technique. […] For Amas assays, a monolayer of Vero cells (3 × 10^5 cel/mL) was infected with TDC in a 1:3 cell:parasite ratio and incubated for 24 h until Amas development occurred. Then, these intracellular forms were exposed for 120 h to EOs or terpenes in a treatment applied in two doses (at 0 and 48 h), under the same conditions described above. Growth inhibition analysis was assessed in Giemsa-stained films using light microscopy to determine the infected and uninfected cell percentage in a total of 300 cells. Cells without treatment and those treated with BNZ were used as negative and positive controls, respectively.

A further data set has as its system T. cruzi Amas. In words: Anti-parasitic activity on intracellular T. cruzi amastigotes in Vero cells (Giemsa count). It counts as cell-based, Trypanosoma cruzi. The note with it: for IC50: Trypanosoma cruzi, Vero, read-out: Amas IC50 ± SD; for IC50 / Amas IC50 ± SD: intracellular amastigotes in Vero, 120 h, two doses (0 and 48 h); for Amas SI (CC50/IC50): Vero CC50 / amastigote IC50. The procedure: as §1, §2

Data set [1] deals with T. cruzi Epi. Nature of the data set: Morphological analysis by optical and fluorescent microscopy (DIC, DAPI, MitoTracker). Type of data set: cell-based, Trypanosoma cruzi. The settings on record: 2xIC50, 48 h. The method, then: (§3) The death phenotype was analyzed by optical and fluorescent microscopy using phase contrast (fluorescence microscopy, Nikon Eclipse Ni). […] Determination of an oligonucleosomal-DNA ladder in treated parasites was also evaluated through DNA gel electrophoresis. Evaluation of the mitochondrial potential membrane in living parasites was performed with MitoTracker Red CMXRos (579 nm/599 nm […] wavelength). As a positive and negative apoptosis control, a 15 day-old Epi culture and an untreated fresh parasite culture were used, respectively.

Data set [2] is described as follows: Cytotoxic activity on Vero cells (WST-1). The settings on record: African green monkey, pH 7.4. The method, then:
as §1
(§4) Vero cells (3 × 10^5 cel/mL) were incubated at 37 °C in a 5% CO2 atmosphere and at 95% humidity for 24 h to ensure the formation of a confluent monolayer. After this time, the cells were treated with the EOs or their terpenes in four different concentrations (11.1, 33.3, 100, and 300 μg/mL). Thereafter, the lineages were incubated for 70 h at 37 °C in a 5% CO2 atmosphere and re-incubated 2 more hours with WST-1 (Roche, Mannheim, Germany), after which Optical Density (OD) measurements were analyzed by spectrophotometry. The cytotoxicity percentage was calculated using [(OD450nm Control – OD450nm treatment) / […])] × 100. The results were expressed as Cytotoxic Concentration 50 (CC50).
On the technique in general: Tetrazolium dyes change colour on reduction, which living cells bring about.

Data set [3] deals with T. cruzi Epi. Nature of the data set: Anti-parasitic activity on T. cruzi epimastigotes (Trypan Blue differential count). The settings on record: for IC50: Trypanosoma cruzi, read-out: Epi IC50 ± SD, epimastigotes, 72 h; for IC50 / Epi IC50 ± SD: 72 h; for Epi SI (CC50/IC50): Vero CC50 / epimastigote IC50; for Epi IC50 ± SD: epimastigotes. The procedure:
as §1, §2

Data set [4] relates to T. cruzi Epi. Nature of the data set: Flow cytometry Annexin V / SYTOX Green cell death analysis on epimastigotes. The settings on record: 48 h at 2xIC50, flow cytometry. It counts as cell-based, Trypanosoma cruzi. The procedure:
For cell death characterization, an Annexin V/Dead with SYTOX® Green (Molecular Probes, Invitrogen) kit was used following the procedure specified in the manufacturer’s instructions. The phosphatidylserine externalization was determined by employing a recombinant Annexin V conjugated to the Orange Fluorescent phycobiliprotein R-PE, and to the necrotic cells using SYTOX™ Green nucleic acid stain. Briefly, 1 × 10^6 Epi per mL were treated with 2xIC50 for 48 h, washed, and suspended in 1X Annexin-Binding Buffer.

Data set [5] deals with T. cruzi Epi. Nature of the data set: DNA fragmentation by TUNEL assay on epimastigotes. It counts as cell-based, Trypanosoma cruzi. The note with it: for DNA fragmentation (positive TUNEL) percentage: Epi, 48 h, 2xIC50; for TUNEL assay result: treated parasites. The method, then: as §3
For another data set, the system named is Vero cells. Nature of the data set: Cytotoxic activity on Vero cells (WST-1). The note with it: Vero cells, 72 h, WST-1. The method, then: as §1, §4
Setting [6] is: Vero cells (ATCC CCL-81), kidney.

In brackets after ≈: the same amount, converted by molar mass. Entries after “also recorded” stand apart in the source; their conditions may differ. A value given as a limit tells only on which side of the number the result lay.

One may read the IC50 as the concentration needed to halve the response being measured. A word on the CC50: it is the concentration that lowers cell viability or growth by half. A high value points to better tolerance by the cells. In the case of `CC(C)=CCCC(C)=CC=O` (mixture of isomers) [Citral, citral], in the data set with T. cruzi Tryp (TDC), the IC50 is 20.8 µg/mL, the “Tryp SI (CC50/IC50)” value is listed as 4.3 and the “Tryp IC50 SD” value turned out to be 21 ± 1 µg/mL. Moreover, in the data set with T. cruzi Amas, the IC50 stood at 49 ± 2.3 µg/mL and the “Amas SI (CC50/IC50)” value is 1.8. Moreover, in the data set on T. cruzi Epi [1], the “morphological changes of treated parasites” value (from here on “morphological changes”) was “typical characteristics of apoptosis”. The midpoint of cytotoxicity in data set [2] (setting [6]), the CC50 at 72 h, lay at 90 ± 3.9 µg/mL. Besides, in the data set on T. cruzi Epi [3], the half-inhibitory concentration (IC50) turned out to be 37.2 µg/mL, the “Epi SI (CC50/IC50)” value worked out at 2.4 and the “Epi IC50 ± SD” value came out at 37 ± 0.7 µg/mL. The “percentage of cell death” value with T. cruzi Epi [4] is 78.4%.
Regarding `O=C(Cn1ccnc1[N+](=O)[O-])NCc1ccccc1` [BNZ, Benznidazole, reference compound], in the data set with T. cruzi Tryp (TDC), the IC50 was determined as 1.2 ± 0.1 µg/mL (≈ 4.61 µM) and the “Tryp SI (CC50/IC50)” value amounted to 116.3. In addition, in the data set with T. cruzi Amas, the half-inhibitory concentration (IC50) stood at 6 ± 0.9 µg/mL (≈ 23.1 µM), the “Amas SI (CC50/IC50)” value amounted to 22.4 and the “Amas IC50 ± SD” value amounted to 6.2 ± 0.9 µg/mL. For the same molecule, the “morphological changes” value in the data set on T. cruzi Epi [1] is “cellular edema and loss of cellular membrane integrity, but with conserved mitochondrial energetic potential”. Also, in data set [2] (setting [6]), half-maximal cytotoxicity (CC50 at 72 h) was put at 139 ± 2.3 µg/mL (≈ 534 µM). In the data set on T. cruzi Epi [3], the IC50 worked out at 17 ± 0.9 µg/mL (≈ 65.3 µM) and the “Epi SI (CC50/IC50)” value turned out to be 8.2.
`C=C(C)[C@H]1CC=C(C)C(=O)C1` [Carvone, S (+) carvone]: in the data set with T. cruzi Tryp (TDC), the IC50 worked out at 124 ± 8 µg/mL (≈ 825 µM) and the “Tryp SI (CC50/IC50)” value is given as 1.9. Further, the IC50 with T. cruzi Amas was greater than 100 µg/mL. The CC50 at 72 h in data set [2] came out at 240 ± 4.1 µg/mL (≈ 1600 µM). In the data set with T. cruzi Epi [3], the IC50 came to 177 ± 7.9 µg/mL (≈ 1180 µM) and the “Epi SI (CC50/IC50)” value amounted to 1.4.
On to `C=C(C)[C@H]1CC=C(C)CC1` [Limonene, D (+) limonene], for which, in the data set on T. cruzi Tryp (TDC), the “Tryp IC50 SD” value amounted to 9 ± 0.8 µg/mL. In addition, the “Amas IC50 ± SD” value in the data set on T. cruzi Amas was 29 ± 0.7 µg/mL; in the data set with T. cruzi Amas (listed as limonene) it was 28.7 µg/mL. Besides, in the data set with T. cruzi Epi [5], the “DNA fragmentation (positive TUNEL) percentage” value is 94%. For the same molecule, the TUNEL assay result in the data set on T. cruzi Epi [5] is “positive”. In the data set with T. cruzi Epi [1], the “morphological changes” value is “typical characteristics of apoptosis”. The “Vero CC50 ± SD” value in the data set with Vero cells was determined as 297 ± 2.4 µg/mL. In the data set with T. cruzi Epi [4], the “percentage of cell death” value is recorded as 89.2%.
Take (−) caryophyllene oxide [CarOx]: in the data set on T. cruzi Tryp (TDC), the “Tryp SI (CC50/IC50)” value is recorded as 5.9 and the “Tryp IC50 SD” value amounted to 22 ± 0.3 µg/mL. Also, in the data set on T. cruzi Tryp (TDC) (at 50 μg/mL), the “cell death percentage (CDP) on Tryp” value is recorded as 98 ± 0.5%. The “Tryp IC50 SD” value in the data set on T. cruzi Tryp (TDC) (listed as caryophyllene oxide) stood at 21.6 µg/mL. In the data set on T. cruzi Amas, the “Amas SI (CC50/IC50)” value was found to be 2.7 and the “Amas IC50 ± SD” value came out at 47 ± 1.0 µg/mL. For the same molecule, the “Amas IC50 ± SD” value in the data set with T. cruzi Amas (listed as caryophyllene oxide) amounted to 47.4 µg/mL. Also, in the data set with T. cruzi Epi [5], the “DNA fragmentation (positive TUNEL) percentage” value was 99% and the TUNEL assay result is “positive”. Also, the “morphological changes” value with T. cruzi Epi [1] is given as “flagellum to be lost; also recorded: typical characteristics of apoptosis”. For the same molecule, the “Vero CC50 ± SD” value in the data set on Vero cells is 128 ± 4.2 µg/mL. For the same molecule, in the data set on T. cruzi Epi [3], the “Epi SI (CC50/IC50)” value was determined as 4.3 and the “Epi IC50 ± SD” value turned out to be 30 ± 1.7 µg/mL. Besides, the “cell death percentage (CDP) on Epi” value with T. cruzi Epi [3] (at 50 μg/mL) stood at 78 ± 2.3%. The “Epi IC50 ± SD” value with T. cruzi Epi [3] (listed as caryophyllene oxide) was 29.8 µg/mL. The “percentage of cell death” value with T. cruzi Epi [4] worked out at 95.7%.
